Measurements from patent US6479531B1, “Gastrin and cholecystokinin receptor ligands” (James Black Foundation Limited, priority 1998, dated 2002).

Legend:
CCKA receptor = biological target: T1, CCKA receptor (Cavia porcellus, UniProt Q63931); experiment: CCKA binding assay in guinea-pig pancreas membranes; conditions: [125I]-CCK8(S) 200 pM, with 0.375 μM PD134,308, read-out: CCKA pKi (converted)
T1 construct: The pancreatata were removed from male guineau-pigs (200-300 g; Dunkin Hartley); from tissue; host or cells: pancreas membranes of male Dunkin Hartley guinea-pigs
T1 sequence (Q63931 1-430): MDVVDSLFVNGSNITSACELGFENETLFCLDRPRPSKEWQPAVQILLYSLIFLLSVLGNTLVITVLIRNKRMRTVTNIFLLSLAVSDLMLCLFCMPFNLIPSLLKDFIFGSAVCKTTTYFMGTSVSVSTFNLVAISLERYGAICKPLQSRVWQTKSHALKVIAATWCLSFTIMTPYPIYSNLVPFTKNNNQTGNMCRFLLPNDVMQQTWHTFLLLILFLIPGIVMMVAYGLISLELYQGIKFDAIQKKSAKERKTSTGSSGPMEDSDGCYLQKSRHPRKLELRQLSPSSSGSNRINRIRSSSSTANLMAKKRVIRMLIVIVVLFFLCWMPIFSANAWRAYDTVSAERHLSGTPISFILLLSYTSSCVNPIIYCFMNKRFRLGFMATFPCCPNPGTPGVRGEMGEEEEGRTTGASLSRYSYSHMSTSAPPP
Description: The compounds of certain examples were also tested in a CCKA binding assay as follows:
The pancreatata were removed from male guineau-pigs (200-300 g; Dunkin Hartley) and placed in ice-cold HEPES buffer (pH 7.2 @ 21±3° C.). The pancreatata were homogenised in 40 ml ice-cold HEPES buffer using a polytron (Brinkmann, PT10, setting 10) 4×1 second. The homogenate was centrifuged at 39,800 g for 15 min at 4° C. The supernatant was discarded and the pellet re-suspended using a Teflon-in-glass homogeniser in 20 volumes of fresh buffer and re-centrifuged as above. The final pellet was re-suspended using a Teflon-in-glass homogeniser to a tissue concentration of 1 mg.ml^−1 (original weight), and filtered through a 500 μm pore-size Nytex mesh.
The membranes (400 μl; containing 0.375 μM PD134,308) were incubated for 150 minutes at 21±3° C. in a final volume of 0.5 ml with HEPES buffer containing [^125I]-CCK8 (S) (50 μl; 200 pM) and competing compound. Total and non-specific binding of [^125I]-CCK8 (S) were defined using 50 μl of buffer and 50 μ of 100 nM L-364,718 respectively. The assay was terminated by rapid filtration through pre-soaked Whatman GF/B filters using a Brandell Cell Harvetser. The filters were washed (3×3 ml) with ice-cold 50 mM Tris HCl (pH 7.4 @ 4° C.) and bound radioactivity was determined by counting (1 min) in a gamma counter.

gastrin receptor = biological target: T2, gastrin receptor (Rattus norvegicus, UniProt P30553); experiment: gastrin antagonist activity in immature rat stomach assay (pentagastrin dose-response, acid secretion); conditions: isolated immature rat stomach, cumulative pentagastrin dose-response curves, read-out: Gastrin pKb (converted)
T2 construct: The stomach was excised and flushed with ca. 1 ml of unbuffered physiological saline solution; from tissue; host or cells: isolated whole stomach of immature rats (ca. 21 days old)
T2 sequence (P30553 1-452): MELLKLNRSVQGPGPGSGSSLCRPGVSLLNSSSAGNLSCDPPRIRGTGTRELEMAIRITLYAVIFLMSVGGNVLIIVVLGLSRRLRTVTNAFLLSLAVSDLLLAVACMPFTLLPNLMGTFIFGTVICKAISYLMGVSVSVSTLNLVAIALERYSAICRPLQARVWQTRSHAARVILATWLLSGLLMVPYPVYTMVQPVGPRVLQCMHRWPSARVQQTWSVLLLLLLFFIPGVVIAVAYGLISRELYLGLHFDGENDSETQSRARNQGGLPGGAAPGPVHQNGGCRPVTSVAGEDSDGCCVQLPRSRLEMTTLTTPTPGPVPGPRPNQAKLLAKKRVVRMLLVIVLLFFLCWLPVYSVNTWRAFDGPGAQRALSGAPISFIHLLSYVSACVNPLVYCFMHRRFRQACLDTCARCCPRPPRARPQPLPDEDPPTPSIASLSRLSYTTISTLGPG
In short: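 Isolated, lumen-perfused stomach from immature rats (33-50 g, ca. 21 days) in a 37° organ bath with 3×10^−8 M 5-methylfurmethide, gassed 95% O2/5% CO2. Compound added serosally after 120 min stabilisation; cumulative pentagastrin dose-response curves begun 60 min later, acid secretion followed by perfusate pH.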

CCKB receptor = biological target: T3, CCKB receptor (Mus musculus, UniProt P56481); experiment: CCKB receptor radioligand binding assay in mouse cortical membranes; conditions: [125I]-CCK8(S) 200 pM, 150 min at 21±3°, read-out: CCKB pKi (converted)
T3 construct: The whole brains from male mice (CD1 22-25 g; Charles River) were removed; from tissue; host or cells: cerebral cortex membranes of male CD1 mice
T3 sequence (P56481 1-453): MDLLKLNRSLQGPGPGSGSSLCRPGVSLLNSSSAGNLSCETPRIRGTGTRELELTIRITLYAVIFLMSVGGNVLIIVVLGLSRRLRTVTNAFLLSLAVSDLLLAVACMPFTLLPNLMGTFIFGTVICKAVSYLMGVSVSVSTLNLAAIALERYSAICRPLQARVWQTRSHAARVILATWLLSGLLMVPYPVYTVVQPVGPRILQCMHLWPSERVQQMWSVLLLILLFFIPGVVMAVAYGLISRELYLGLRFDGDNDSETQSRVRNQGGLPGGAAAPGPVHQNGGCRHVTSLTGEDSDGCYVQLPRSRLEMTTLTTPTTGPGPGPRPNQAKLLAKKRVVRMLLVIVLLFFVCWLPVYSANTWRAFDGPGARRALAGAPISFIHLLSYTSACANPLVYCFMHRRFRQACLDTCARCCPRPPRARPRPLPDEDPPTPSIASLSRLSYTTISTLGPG
In short: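 Bound radioactivity was gamma-counted after rapid GF/B filtration and cold 50 mM Tris-HCl (pH 7.4) washes. The tissue was cerebral cortex from male CD1 mice, prepared as twice-centrifuged membranes in pH 7.2 HEPES/NaCl/KCl/MgCl2/EDTA buffer with bacitracin at 20 mg/ml original wet weight.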

Row | SMILES | Ki (CCKA receptor) [nM] | Kb (gastrin receptor) [nM] | Ki (CCKB receptor) [nM]
1 | O=C(O)c1cccc(NC(=O)c2nc(C3CCCCC3)[nH]c2COC23CC4CC(CC(C4)C2)C3)c1 [Example 216, 3-{[5-(Adamantan-1-yloxymethyl)-2-cyclohexyl-1H-imidazole-4-carbonyl]-amino}-benzoic Acid] | 501 | 0.871 | 12.6
2 | Cc1cc(C)c(-c2nc(C(=O)Nc3ccc(C)c(C(=O)O)c3)c(CCC34CC5CC(CC(C5)C3)C4)[nH]2)c(C)c1 [Example 155, 5-{[5-(2-Adamantan-1-yl-ethyl)-2-(2,4,6-trimethyl-phenyl)-1H-imidazole-4-carbonyl]-amino}-2-methyl-benzoic Acid] | 126 | 3.24 | 2.88
3 | Cc1ccc(NC(=O)c2nc(C3CC4C=CC3C4)[nH]c2CCC23CC4CC(CC(C4)C2)C3)cc1C(=O)O (racemic) [Example 211, (±)-endo-5-{[5-(2-Adamantan-1-yl-ethyl)-2-bicyclo[2.2.1]hept-5-en-2-yl-1H-imidazole-4-carbonyl]-amino}-2-methyl-benzoic Acid] | 100 | 2.57 | 2.29
4 | O=C(O)c1cccc(NC(=O)c2nc([C@@H]3CC4C=C[C@H]3C4)[nH]c2COC23CC4CC(CC(C4)C2)C3)c1 [Example 236] | 794 | 1.05 | 
5 | O=C(O)Cc1cccc(NC(=O)c2nc(C3CCCCC3)[nH]c2COC23CC4CC(CC(C4)C2)C3)c1 [Example 219, (3-{[5-(Adamantan-1-yloxymethyl)-2-cyclohexyl-1H-imidazole-4-carbonyl]-amino}-phenyl)-acetic Acid] | 501 | 69.2 | 
6 | O=C(O)c1cccc(NC(=O)c2nc(C34CCC(CC3)CC4)[nH]c2COC23CC4CC(CC(C4)C2)C3)c1 [Example 221, 3-{[5-(Adamantan-1-yloxymethyl)-2-bicyclo[2.2.2]oct-1-yl-1H-imidazole-4-carbonyl]-amino}-benzoic Acid] | 794 | 0.708 | 
7 | O=C(O)Cc1cccc(NC(=O)c2nc(C34CCC(CC3)CC4)[nH]c2COC23CC4CC(CC(C4)C2)C3)c1 [Example 224, (3-{[5-(Adamantan-1-yloxymethyl)-2-bicyclo[2.2.2]oct-1-yl-1H-imidazole-4-carbonyl]-amino}-phenyl)-acetic Acid] | 631 | 18.2 | 
8 | Cc1ccc(NC(=O)c2[nH]c(C3(C)CCCCC3)nc2CCC23CC4CC(CC(C4)C2)C3)cc1C(=O)O [Example 200, 5-{[5-(2-Adamantan-1-yl-ethyl)-2-(1-methyl-cyclohexyl)-1H-imidazole-4-carbonyl}-amino)-2-methyl-benzoic Acid] | 251 | 0.891 | 3.8
9 | O=C(O)c1cccc(NC(=O)c2nc([C@H]3CC4C=C[C@@H]3C4)[nH]c2COC23CC4CC(CC(C4)C2)C3)c1 [Example 235, endo-3-{[5-(Adamantan-1-yloxymethyl)-2-((1S,2S)-bicyclo[2.2.1]hept-5-en-2-yl)-1H-imidazole-4-carbonyl]-amino}-benzoic Acid] | 2510 | 3.02 | 
10 | O=C(O)c1cccc(NC(=O)c2[nH]c(C3CCCCC3)nc2CCC23CC4CC(CC(C4)C2)C3)c1 [Example 76, 3-{[5-(2-Adamantan-1-yl-ethyl)-2-cyclohexyl-1H-imidazole-4-carbonyl]-amino}-benzoic Acid] | 631 | 4.9 | 25.1
